Measurements from ChEMBL document CHEMBL1158677, “New Diterpene Lactones from the Sponge Spongia matamata” (J Nat Prod, 1998).

System: Artemia
Experiment: Toxicity in brine shrimp
Assay type: organism-based
Conditions: in vivo; call rule not given here

For C[C@]12CC(=O)O[C@@](C)(CO)[C@@H]1CC[C@@]1(C)c3cocc3CC[C@H]21, which Activity is on record?
The Activity was “Not Active”.
